In PubChem BioAssay AID2060508 (Molecular Pharmacology Branch, DTP, NCI, 2025):

System: 454973-116-R2-J3-PDC spheroids, viability, % test/control
Assay: Anticancer human tumor 454973-116-R2-J3-PDC patient-derived pancreatic carcinoma cell line growth inhibition [GQUAD]
Conditions: spheroids with HUVEC and MSC; for IC50: curve of first compound; for viability, T/C: stronger effect = lower value
Summary of the method: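 Viability of tumor cells grown as complex spheroids with endothelial and stromal cells, exposed to drug combinations. Top concentration at or near clinical Cmax (else 10 microM), diluted in half-log increments.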

[1] = second compound 0.0316 µM, first compound 0.0316 µM
[2] = second compound 0.0316 µM, first compound 0.1 µM
[3] = second compound 0.0316 µM, first compound 0.316 µM
[4] = second compound 0.0316 µM, first compound 1 µM
[5] = second compound 0.0316 µM, first compound 3.16 µM
[6] = second compound 0.0316 µM, first compound 10 µM
[7] = second compound 0.1 µM, first compound 0.0316 µM
[8] = second compound 0.1 µM, first compound 0.1 µM
[9] = second compound 0.1 µM, first compound 0.316 µM
[10] = second compound 0.1 µM, first compound 1 µM
[11] = second compound 0.1 µM, first compound 3.16 µM
[12] = second compound 0.1 µM, first compound 10 µM
[13] = second compound 0.316 µM, first compound 0.0316 µM
[14] = second compound 0.316 µM, first compound 0.1 µM
[15] = second compound 0.316 µM, first compound 0.316 µM
[16] = second compound 0.316 µM, first compound 1 µM
[17] = second compound 0.316 µM, first compound 3.16 µM
[18] = second compound 0.316 µM, first compound 10 µM
[19] = second compound 1 µM, first compound 0.0316 µM
[20] = second compound 1 µM, first compound 0.1 µM
[21] = second compound 1 µM, first compound 0.316 µM
[22] = second compound 1 µM, first compound 1 µM
[23] = second compound 1 µM, first compound 3.16 µM
[24] = second compound 1 µM, first compound 10 µM
[25] = second compound 3.16 µM, first compound 0.0316 µM
[26] = second compound 3.16 µM, first compound 0.1 µM
[27] = second compound 3.16 µM, first compound 0.316 µM
[28] = second compound 3.16 µM, first compound 1 µM
[29] = second compound 3.16 µM, first compound 3.16 µM
[30] = second compound 3.16 µM, first compound 10 µM
[31] = second compound 10 µM, first compound 0.0316 µM
[32] = second compound 10 µM, first compound 0.1 µM
[33] = second compound 10 µM, first compound 0.316 µM
[34] = second compound 10 µM, first compound 1 µM
[35] = second compound 10 µM, first compound 3.16 µM
[36] = second compound 10 µM, first compound 10 µM
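Note: spheroids exposed to compounds for seven days.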
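Throughout, for viability, T/C: 100% = DMSO vehicle control viability.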

`COc1cccc2c1C(=O)c1c(O)c3c(c(O)c1C2=O)CC(O)(C(=O)CO)CC3OC1CC(N)C(O)C(C)O1` (stereo not drawn) + Cc1[nH]c2ccc(F)cc2c1-c1nc2c3cccnc3c3ncccc3c2[nH]1 gave an IC50 (second compound 0.0316 µM) of 0.166 µM, an IC50 (second compound 0.1 µM) of 0.188 µM and an IC50 (second compound 0.316 µM) of 0.154 µM. For the same compound, the IC50 (second compound 1 µM) was 0.143 µM, the IC50 (second compound 3.16 µM) was 0.145 µM and the IC50 (second compound 10 µM) was 0.158 µM. The viability, T/C [1] was 106%, the viability, T/C [2] was 63.1% and the viability, T/C [3] was 30.4%. For the same compound, the viability, T/C [4] was 22.6%, the viability, T/C [5] was 11.4% and the viability, T/C [6] was 0.63%. For the same compound, the viability, T/C [7] was 97.8%, the viability, T/C [8] was 69.8% and the viability, T/C [9] was 27.2%. It also gave a viability, T/C [10] of 28.9%, a viability, T/C [11] of 11% and a viability, T/C [12] of 0.58%. The viability, T/C [13] was 96.5%, the viability, T/C [14] was 59.7% and the viability, T/C [15] was 27.6%. For the same compound, the viability, T/C [16] was 28.2%, the viability, T/C [17] was 11.8% and the viability, T/C [18] was 0.44%. For the same compound, the viability, T/C [19] was 90.6%, the viability, T/C [20] was 61.4% and the viability, T/C [21] was 24.3%. The viability, T/C [22] was 26.2%, the viability, T/C [23] was 11.1% and the viability, T/C [24] was 0.62%. The viability, T/C [25] was 93.1%, the viability, T/C [26] was 59.6% and the viability, T/C [27] was 27.6%. It also gave a viability, T/C [28] of 24.4%, a viability, T/C [29] of 14.8% and a viability, T/C [30] of 0.52%. It also gave a viability, T/C [31] of 81.9%, a viability, T/C [32] of 64.7% and a viability, T/C [33] of 27%. It also gave a viability, T/C [34] of 27.1%, a viability, T/C [35] of 11.5% and a viability, T/C [36] of 0.75%.
For `CC1COCCN1c1cc(C2(S(C)(=N)=O)CC2)nc(-c2ccnc3[nH]ccc23)n1` (stereo not drawn) + Cc1cnc(CNC(=O)c2c(=O)c3ccc(N4CCCN(C)CC4)nc3n3c2sc2ccccc23)cn1, the IC50 (second compound 0.0316 µM) was 2.56 µM, the IC50 (second compound 0.1 µM) was 1.42 µM and the IC50 (second compound 0.316 µM) was 0.957 µM. The IC50 (second compound 1 µM) was 1.47 µM, the IC50 (second compound 3.16 µM) was 1.06 µM and the IC50 (second compound 10 µM) was < 0.0316 µM. It also gave a viability, T/C [1] of 104%, a viability, T/C [2] of 95.5% and a viability, T/C [3] of 96.6%. The viability, T/C [4] was 79.2%, the viability, T/C [5] was 43.2% and the viability, T/C [6] was 21.6%. The viability, T/C [7] was 90.9%, the viability, T/C [8] was 81.9% and the viability, T/C [9] was 74.2%. For the same compound, the viability, T/C [10] was 58.9%, the viability, T/C [11] was 33% and the viability, T/C [12] was 23.5%. For the same compound, the viability, T/C [13] was 70.8%, the viability, T/C [14] was 73% and the viability, T/C [15] was 64.6%. The viability, T/C [16] was 50.5%, the viability, T/C [17] was 30.3% and the viability, T/C [18] was 27.8%. The viability, T/C [19] was 62.9%, the viability, T/C [20] was 67.2% and the viability, T/C [21] was 70%. It also gave a viability, T/C [22] of 56.6%, a viability, T/C [23] of 36.1% and a viability, T/C [24] of 38%. The viability, T/C [25] was 65.9%, the viability, T/C [26] was 66.1% and the viability, T/C [27] was 59.4%. The viability, T/C [28] was 46.9%, the viability, T/C [29] was 42% and the viability, T/C [30] was 38.4%. For the same compound, the viability, T/C [31] was 0.26%, the viability, T/C [32] was 0.49% and the viability, T/C [33] was 0.34%. For the same compound, the viability, T/C [34] was 0.88%, the viability, T/C [35] was 0.61% and the viability, T/C [36] was 0.35%.
For `O=C(c1cc(Cc2n[nH]c(=O)c3ccccc23)ccc1F)N1CCN(C(=O)C2CC2)CC1` + Cc1[nH]c2ccc(F)cc2c1-c1nc2c3cccnc3c3ncccc3c2[nH]1, the IC50 (second compound 0.0316 µM) was > 10 µM, the IC50 (second compound 0.1 µM) was > 10 µM and the IC50 (second compound 0.316 µM) was > 10 µM. The IC50 (second compound 1 µM) was > 10 µM, the IC50 (second compound 3.16 µM) was > 10 µM and the IC50 (second compound 10 µM) was > 10 µM. It also gave a viability, T/C [1] of 98.5%, a viability, T/C [2] of 89.7% and a viability, T/C [3] of 101%. The viability, T/C [4] was 100%, the viability, T/C [5] was 79.8% and the viability, T/C [6] was 60.8%. The viability, T/C [7] was 109%, the viability, T/C [8] was 97.3% and the viability, T/C [9] was 93.2%. It also gave a viability, T/C [10] of 94.6%, a viability, T/C [11] of 94.9% and a viability, T/C [12] of 58.1%. The viability, T/C [13] was 97.6%, the viability, T/C [14] was 103% and the viability, T/C [15] was 93%. It also gave a viability, T/C [16] of 91.7%, a viability, T/C [17] of 77.6% and a viability, T/C [18] of 58.1%. The viability, T/C [19] was 97.2%, the viability, T/C [20] was 99.8% and the viability, T/C [21] was 87.5%. For the same compound, the viability, T/C [22] was 88%, the viability, T/C [23] was 75.8% and the viability, T/C [24] was 65.5%. It also gave a viability, T/C [25] of 87.4%, a viability, T/C [26] of 107% and a viability, T/C [27] of 84%. It also gave a viability, T/C [28] of 87.7%, a viability, T/C [29] of 77.6% and a viability, T/C [30] of 63.3%. For the same compound, the viability, T/C [31] was 94.1%, the viability, T/C [32] was 81.4% and the viability, T/C [33] was 90.9%. For the same compound, the viability, T/C [34] was 79.6%, the viability, T/C [35] was 73.2% and the viability, T/C [36] was 61.5%.
With `COc1ncnc(C2CC2)c1-c1ncc2cnn(Cc3ccc(-c4nc(C(F)(F)F)cn4C(C)C)cc3)c2n1` + Cc1[nH]c2ccc(F)cc2c1-c1nc2c3cccnc3c3ncccc3c2[nH]1 the IC50 (second compound 0.0316 µM) was > 10 µM, the IC50 (second compound 0.1 µM) was > 10 µM and the IC50 (second compound 0.316 µM) was > 10 µM. The IC50 (second compound 1 µM) was > 10 µM, the IC50 (second compound 3.16 µM) was > 10 µM and the IC50 (second compound 10 µM) was > 10 µM. For the same compound, the viability, T/C [1] was 112%, the viability, T/C [2] was 100% and the viability, T/C [3] was 110%. For the same compound, the viability, T/C [4] was 110%, the viability, T/C [5] was 96% and the viability, T/C [6] was 102%. The viability, T/C [7] was 126%, the viability, T/C [8] was 102% and the viability, T/C [9] was 107%. The viability, T/C [10] was 105%, the viability, T/C [11] was 92.9% and the viability, T/C [12] was 100%. It also gave a viability, T/C [13] of 109%, a viability, T/C [14] of 111% and a viability, T/C [15] of 106%. The viability, T/C [16] was 120%, the viability, T/C [17] was 105% and the viability, T/C [18] was 98.6%. It also gave a viability, T/C [19] of 103%, a viability, T/C [20] of 99.3% and a viability, T/C [21] of 105%. For the same compound, the viability, T/C [22] was 106%, the viability, T/C [23] was 92.3% and the viability, T/C [24] was 98.9%. For the same compound, the viability, T/C [25] was 99.2%, the viability, T/C [26] was 97.3% and the viability, T/C [27] was 99.4%. It also gave a viability, T/C [28] of 91.5%, a viability, T/C [29] of 96.9% and a viability, T/C [30] of 89.8%. The viability, T/C [31] was 102%, the viability, T/C [32] was 92.9% and the viability, T/C [33] was 96.7%. The viability, T/C [34] was 86.8%, the viability, T/C [35] was 83.5% and the viability, T/C [36] was 95.1%.
